In PubChem BioAssay (NCI):
“And” between values parts separate entries of the source, which are not always exact repeats. Identical values can stand only once.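 Grown in 96-well plates, cells were treated for 48 hours with each compound at five concentrations. Insufficient inhibition: endpoint recorded as highest concentration tested. At the GI50, growth is halved. Definition used: TGI = concentration required for complete inhibition of growth.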

Experiments:
Test in all cases: NCI-60 cell line screen, 48 h
CAKI-1 renal = system: CAKI-1 renal
COLO 205 colon = system: COLO 205 colon
DLD-1 colon = system: DLD-1 colon
HT29 colon = system: HT29 colon
MDA-MB-435 = system: MDA-MB-435
NCI/ADR-RES ovarian = system: NCI/ADR-RES ovarian
SNB-78 CNS = system: SNB-78 CNS
SW-620 colon = system: SW-620 colon
UACC-257 melanoma = system: UACC-257 melanoma
UO-31 renal = system: UO-31 renal

Row | SMILES | GI50 (CAKI-1 renal) | TGI (CAKI-1 renal) | GI50 (COLO 205 colon) | TGI (COLO 205 colon) | TGI (DLD-1 colon) | GI50 (HT29 colon) | TGI (HT29 colon) | GI50 (MDA-MB-435) | TGI (MDA-MB-435) | GI50 (NCI/ADR-RES ovarian) | TGI (NCI/ADR-RES ovarian) | TGI (SNB-78 CNS) | GI50 (SW-620 colon) | TGI (SW-620 colon) | GI50 (UACC-257 melanoma) | TGI (UACC-257 melanoma) | GI50 (UO-31 renal) | TGI (UO-31 renal)
1 | O=c1c(O)c(-c2ccc(O)c(O)c2)oc2cc(O)cc(O)c12 | 20.4 µM | > 100 µM | 60.8 µM | > 100 µM | > 100 µM | 37.3 µM | > 100 µM | 5.08 µM | > 100 µM | 12.8 µM | 63.8 µM | > 100 µM | 26.7 µM | > 100 µM and 59.8 µM | 37.4 µM | > 100 µM | 8.48 µM | > 100 µM
2 | O=C(N/C(=C\c1ccc(/C=C(\NC(=O)c2ccccc2)c2nc3ccccc3[nH]2)cc1)c1nc2ccccc2[nH]1)c1ccccc1 |  | > 100 µM |  | > 100 µM | > 100 µM |  | > 100 µM |  |  |  |  | > 100 µM |  | > 100 µM |  | > 100 µM |  | > 100 µM
3 | O=C1/C(=N\O)S(=O)(=O)c2ccccc21 |  | > 100 µM |  | > 100 µM | > 100 µM |  | > 100 µM |  |  |  |  | > 100 µM |  | > 100 µM |  | > 100 µM |  | > 100 µM
4 | CCc1cccc(C)c1NC(=O)C1=C(C)NC(C)=C(C(=O)Nc2c(C)cccc2CC)C1c1ccc2c(c1)OCO2 |  | 39.4 µM |  | 38.6 µM | 47.5 µM |  | 39.4 µM |  |  |  |  | > 100 µM |  | 55.9 µM |  | 46.3 µM |  | 28.7 µM
5 | CCc1ccccc1NC(=O)/C(N=O)=C(/C)O |  | > 100 µM |  | > 100 µM | > 100 µM |  | > 100 µM |  |  |  |  | > 100 µM |  | > 100 µM |  | > 100 µM |  | > 100 µM
